# Assays:
# Format in all cases: binding
# [1] = molecular target: T1, 5-HT2C receptor L209^ECL2F (Homo sapiens, UniProt P28335, DEL255-298/G251D/H250E/H252N/INS299[…]/L209F/L248D/M247A/M300L/T253W); assay: CPM thermal stability assay, 5-HT2C mutant L209F; details: n = 2
# T1 construct: the N- and C-terminals were truncated by 39 and 65 residues, respectively; PreScission protease site + 10× His (C); made in house
# Text: (§1) Based on the binding poses predicted by molecular docking, single-point mutations were designed to test their impact on ligand binding. Mutations of several residues include the highly conserved Asp134^3.32, which is known to cause 5-HT1B or 5-HT2B receptors to abolish the monoamine ligand binding as reported in the literature (Wang et al. [2013]). In this study, residues forming hydrophobic interactions with the substitution groups on the aporphine scaffold of (–)-crebanine (1) were selected for mutation as well and they are Thr139^3.37, Gly218^5.42, Ala222^5.46, and Leu209^ECL2. Effects of those mutations were tested with the CPM assay and the affinity MS assay (Table 2). In the affinity MS experiment, relative ligand-binding capacity (represented by binding %) to different mutants and the wild-type receptor was compared. […]
# (§2) Purified 5-HT2C receptor protein was thoroughly mixed with CPM fluorescent dyes. […] Fluorescence signals, wavelength 387 nm (excitation) and 463 nm (emission), were monitored (Alexandrov et al. [2008]). […] The thermal denaturation of the samples was evaluated using the scatter plot curve, where the horizontal coordinates represented temperature and the vertical coordinates indicated normalized fluorescence intensity recorded for a particular temperature. […]
# [2] = molecular target: T2, 5-HT2C receptor A222^5.46V (Homo sapiens, UniProt P28335, A222V/DEL255-298/G251D/H250E/H252N/INS299[…]/L248D/M247A/M300L/T253W); assay: Affinity MS assay, 5-HT2C mutant A222V; details: mutant A222^5.46V, n = 2
# T2 construct: the N- and C-terminals were truncated by 39 and 65 residues, respectively; PreScission protease site + 10× His (C); made in house
# Text: as §1, with “compared. Among the six mutations tested, five of them reduced the binding of (–)-crebanine (1) by more than 40% relative to binding to the wild-type receptor, displaying the importance of hydrophobic interactions.” for “compared.”
# Four experimental replicates were prepared for each pair of the test ligand and the negative control. […] S/C ratios refer to the ratio of MS response of a specific ligand detected in the 5-HT2C incubation sample versus the control. […]
# [3] = molecular target: T3, 5-HT2C receptor G218^5.42S (Homo sapiens, UniProt P28335, DEL255-298/G218S/G251D/H250E/H252N/INS299[…]/L248D/M247A/M300L/T253W); assay: CPM thermal stability assay, 5-HT2C mutant G218S
# T3 construct: the N- and C-terminals were truncated by 39 and 65 residues, respectively; PreScission protease site + 10× His (C); made in house
# Text: as §1, §2
# [4] = molecular target: T2, 5-HT2C receptor A222^5.46V; assay: CPM thermal stability assay, 5-HT2C mutant A222V
# Text: as §1, §2
# T2 sequence (P28335 with tags, fused parts or gaps with the stated changes): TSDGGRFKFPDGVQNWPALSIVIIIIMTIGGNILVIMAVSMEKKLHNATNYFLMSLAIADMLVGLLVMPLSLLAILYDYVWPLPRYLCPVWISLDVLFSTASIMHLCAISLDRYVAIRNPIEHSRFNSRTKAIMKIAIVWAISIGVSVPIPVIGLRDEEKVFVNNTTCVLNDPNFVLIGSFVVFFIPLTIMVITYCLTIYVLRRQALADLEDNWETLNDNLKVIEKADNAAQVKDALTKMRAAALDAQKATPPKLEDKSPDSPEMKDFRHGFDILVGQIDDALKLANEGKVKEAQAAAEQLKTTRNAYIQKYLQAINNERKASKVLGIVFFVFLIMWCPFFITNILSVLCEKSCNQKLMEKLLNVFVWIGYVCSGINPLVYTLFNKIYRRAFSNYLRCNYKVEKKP
# T3 sequence (P28335 with tags, fused parts or gaps with the stated changes): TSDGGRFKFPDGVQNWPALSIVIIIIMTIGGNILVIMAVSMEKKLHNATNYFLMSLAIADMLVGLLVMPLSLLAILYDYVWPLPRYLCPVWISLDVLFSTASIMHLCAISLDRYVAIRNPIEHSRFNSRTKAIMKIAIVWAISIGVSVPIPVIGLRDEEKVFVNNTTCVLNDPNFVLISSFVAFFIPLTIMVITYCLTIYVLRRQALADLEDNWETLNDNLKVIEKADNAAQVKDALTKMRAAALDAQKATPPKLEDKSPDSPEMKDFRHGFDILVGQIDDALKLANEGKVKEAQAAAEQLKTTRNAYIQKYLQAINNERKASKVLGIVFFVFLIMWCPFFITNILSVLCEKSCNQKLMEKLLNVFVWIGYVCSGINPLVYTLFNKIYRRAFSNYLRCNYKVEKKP
# T1 sequence (P28335 with tags, fused parts or gaps with the stated changes): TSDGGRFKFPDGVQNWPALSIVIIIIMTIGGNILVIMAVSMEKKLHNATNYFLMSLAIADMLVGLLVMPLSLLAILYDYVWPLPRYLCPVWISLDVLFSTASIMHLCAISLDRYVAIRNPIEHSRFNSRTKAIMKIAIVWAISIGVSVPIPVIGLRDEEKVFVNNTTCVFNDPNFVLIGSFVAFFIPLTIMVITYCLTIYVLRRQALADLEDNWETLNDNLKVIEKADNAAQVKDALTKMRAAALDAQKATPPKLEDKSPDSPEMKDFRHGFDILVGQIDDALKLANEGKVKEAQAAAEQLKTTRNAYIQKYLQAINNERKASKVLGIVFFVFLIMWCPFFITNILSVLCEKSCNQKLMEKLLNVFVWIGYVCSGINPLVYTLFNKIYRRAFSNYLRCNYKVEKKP
compound,measurement,setting,value
"COc1ccc2c(c1OC)C[C@@H]1c3c(cc4c(c3-2)OCO4)CCN1C [Compound 1, (–)-crebanine]",(–)-Crebanine/CPM (Tm),[1],55.46 °C
same,(–)-Crebanine/MS relative ligand binding,[2],25.84%
same,(–)-Crebanine/CPM (Tm),"[3]; mutant G218^5.42S, n = 2",53.24 °C
same,Tm value decrease versus wild-type,[3]; mutation Gly218^5.42Ser,over 6.0 °C
same,(–)-Crebanine/CPM (Tm),"[4]; mutant A222^5.46V, n = 2",59.55 °C
same,Tm value decrease versus wild-type,[4]; mutation Ala222^5.46Val,0.38 °C

# — paper PMC5860131, “Identification of natural products as novel ligands for the human 5-HT2C receptor” (Biophysics Reports, 2018)
